Data set [1] in a line: Intrinsic dissolution rate (IDR) measurement, Wood apparatus. Conditions: 900 mL distilled water, 37° C., 50 rpm. The data set is classed as physicochemical. How it is done: Intrinsic dissolution rate (IDR) measurements were performed using a Wood apparatus (Pharma Test PT-DT8 instrument) having a bath temperature of 37° C. Samples were prepared by compressing 200-400 mg samples at 1.5 metric tons for 1 minute. A dissolution medium consisting of 900 mL distilled water, and rotation speed of 50 rpm, was used for each experiment.

Data set [2] can be described thus: PXRD study of crystalline form stability of uncapped samples in a 40° C./75% RH stability chamber. The data set is classed as physicochemical. The note with it: at least 4 weeks. How it is done: PXRD diffractograms were recorded on a Bruker-AXS D8 Discover powder X-ray diffractometer (Bruker-AXS, Karlsruhe, Germany). The X-rays were generated using an Incoatec Micro-focus X-ray source (IpSTube: Cu tube with λ=1.54060 Å) with a voltage of 50 kV and current of 1.00 mA, using a micro mask 0.3 mm plug-in pinhole microslit and a short UBC 45 mm long collimator with a 0.3 mm diameter. For each sample, one frame was collected using a still scan with a Pilatus 3R-100K-A area detector at the distance of 154.72 mm from the sample. Raw data were evaluated using the program DIFFRAC.EVA (Bruker-AXS, Karlsruhe, Germany).

Data set [3] relates to Men with Prostate Cancer on Androgen Deprivation Therapy. Conditions: 50 mg of zuclomiphene citrate, interim Phase 2 results; cited from earlier work.

As to “zuclomiphene L-malate [zuclomiphene L-malate Form APO-I]”, the “IDR (intrinsic dissolution rate)” value in data set [1] stood at 3.75 mg min^−1 cm^−2. Besides, in data set [2], the “change in the crystalline form (PXRD)” value is “no change in the crystalline form occurred”. The corresponding values for “zuclomiphene L-tartrate [zuclomiphene L-tartrate Form APO-I]” are 2.37 mg min^−1 cm^−2 and “no change in the crystalline form occurred”. “zuclomiphene fumarate [zuclomiphene fumarate Form APO-I]”: in data set [2], the “change in the crystalline form (PXRD)” value is “no change in the crystalline form occurred”. As to “zuclomiphene tosylate [zuclomiphene tosylate Form APO-I]”, the “change in the crystalline form (PXRD)” value in data set [2] is “no change in the crystalline form occurred”. Still for that read-out and setting: the same measure for “zuclomiphene succinate [zuclomiphene succinate Form APO-I]”: “no change in the crystalline form occurred”; for “zuclomiphene phosphate [zuclomiphene phosphate Form APO-I]”: “no change in the crystalline form occurred”.

Regarding zuclomiphene citrate, the “moderate to severe hot flashes, change from baseline” value in data set [3] was “statistically significant decrease”. Consider “zuclomiphene sulphate [zuclomiphene sulphate Form APO-I]”, for which the “change in the crystalline form (PXRD)” value in data set [2] is “no change in the crystalline form occurred”.

The values above are taken from patent US20210292272A1, “Salts of Zuclomiphene” (Apotex Inc., priority 2020, published 2021).
